Reference: patent US9797907B2, “Isolation, detection, diagnosis and/or characterization of circulating Trop-2-positive cancer cells” (Immunomedics, Inc., priority 2015, dated 2017)
Several values for one entry are separate records, joined by “and”; a condition that tells them apart may be missing. Equal values may be shown once.

Columns and labels:
[1] = biological target: DDD of the RII form of PKA (Homo sapiens, UniProt P13861); settings: Alto et al. 2003; read-out: binding constant for DDD; cited from earlier work
Sequence of DDD of the RII form of PKA (P13861 2-45 limits assumed): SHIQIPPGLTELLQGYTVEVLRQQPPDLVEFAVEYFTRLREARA

[2] = irinotecan 125 mg/m^2 weekly×4, Q6W; cited from earlier work
[3] = test system: patients with diverse metastatic cancers; test: Phase I / phase II extension clinical trial of IMMU-132: best response, time to progression, case reports; type: in vivo, human
Protocol: In a 3+3 trial design, IMMU-132 was given on days 1 and 8 in repeated 21-day cycles, starting at 8 mg/kg/dose, then 12 and 18 mg/kg before dose-limiting neutropenia. To optimize cumulative treatment with minimal delays, phase II is focusing on 8 and 10 mg/kg (n=30 and 14, respectively). […] In the Phase I and the expansion phases, there are now 48 pts (excluding PDC) who are assessable by RECIST/CT for best response.
A total of 69 patients (including 25 patients in Phase I) with diverse metastatic cancers having a median of 3 prior therapies were reported. Eight patients had clinical progression and withdrew before CT assessment. Thirteen CT-assessable pancreatic cancer patients were separately reported.
A total of 48 patients with diverse cancers had at least 1 CT-assessment from which Best Response (not shown) and Time to Progression (TTP; not shown) were determined.

RII isoform of PKA = RII isoform of PKA (Homo sapiens, UniProt P13861); settings: Gold et al. 2006; cited from earlier work
Sequence of RII isoform of PKA (P13861 whole entry, canonical isoform): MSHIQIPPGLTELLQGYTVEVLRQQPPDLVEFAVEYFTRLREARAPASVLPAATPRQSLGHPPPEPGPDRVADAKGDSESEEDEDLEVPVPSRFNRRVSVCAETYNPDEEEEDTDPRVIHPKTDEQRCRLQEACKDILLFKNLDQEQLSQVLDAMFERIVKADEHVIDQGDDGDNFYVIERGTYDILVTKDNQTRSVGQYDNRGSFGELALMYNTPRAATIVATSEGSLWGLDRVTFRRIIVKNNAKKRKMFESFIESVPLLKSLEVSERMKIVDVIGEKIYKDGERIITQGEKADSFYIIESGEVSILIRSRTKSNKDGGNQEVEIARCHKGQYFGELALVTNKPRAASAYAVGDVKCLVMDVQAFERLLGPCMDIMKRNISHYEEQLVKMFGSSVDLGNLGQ

[4] = test system: stage IIIB NSCLC (squamous cell carcinoma); test: Example 10: treatment of NSCLC patient after detection of Trop-2+ CTCs; type: in vivo, human; settings: person
Protocol: A […]® system and Circulating Tumor Cell Kit are obtained Veridex LLC (Raritan, N.J.). A 7.5 ml blood sample is collected from a person with suspected NSCLC and stored in a CellSave tube (Veridex LLC). The anti-Trop-2 hRS7 antibody is substituted for the anti-EpCAM antibody provided with the […]® kit. The blood sample is mixed with magnetic nanoparticles conjugated to anti-Trop-2 antibody. Cells are stained with fluorescently labeled anti-CD45 and anti-CK antibodies and cell nuclei are fluorescently labeled with DAPI nuclear dye. A strong magnetic field is generated in the […]® system and used to separate cells bound to the magnetic nanoparticles, which are then analyzed by FISH to determine Trop-2 copy number, as described in Example 7 above.
Initial treatment of caboplatin/etoposide (3 mo) in concert with 7000 cGy XRT results in a response lasting 10 mo. The patient is then started on Tarceva maintenance therapy, which they continue until they were considered for IMMU-132 (hRS7-CL2A-SN-38) trial, in addition to undergoing a lumbar laminectomy. They receive the first dose of IMMU-132 after 5 months of Tarceva, presenting at the time with a 5.6-cm lesion in the right lung with abundant pleural effusion.

[5] = test system: Capan-1 human pancreatic tumor xenografts; test: SN-38 delivery to tumor in nude mice bearing Capan-1 xenografts; type: in vivo
Excerpt: The present Example reports results from a phase I clinical trial and ongoing phase II extension with IMMU-132 (sacituzumab govitecan), an antibody-drug conjugate (ADC) of the internalizing, humanized, hRS7 anti-Trop-2 antibody conjugated by a pH-sensitive linker to SN-38 (mean drug-antibody ratio=7.6). Trop-2 is a type I transmembrane, calcium-transducing, protein expressed at high density (˜1×10^5), frequency, and specificity by many human carcinomas, with limited normal tissue expression.

[6] = human, in vivo
[7] = Phase I/II clinical trial of IMMU-132: related adverse events and dose reductions; type: in vivo, human
[8] = Clinical pharmacokinetics of IMMU-132 in serum (ELISA, HPLC of SN-38); type: in vivo, human
Protocol: Two ELISA methods were used to measure the clearance of the IgG (capture with anti-hRS7 idiotype antibody) and the intact conjugate (capture with anti-SN-38 IgG/probe with anti-hRS7 idiotype antibody). SN-38 was measured by HPLC.

[9] = In vivo animal studies of SN-38 release from conjugate
[10] = starting dose 8 or 10 mg/kg, N = 123 patients
[11] = 48 pts (excluding PDC) assessable by RECIST/CT
[12] = all patients treated, 48 assessable
[13] = esophageal cancer, 4 assessable patients

## QIEYLAKQIVDNAIQQA [AKAP-IS]
[1]
  Kd: 0.4 nM

## CCc1c2c(nc3ccc(OC(=O)N4CCC(N5CCCCC5)CC4)cc13)-c1cc3c(c(=O)n1C2)COC(=O)[C@]3(O)CC [irinotecan]
[2]
  incidence of grade ¾ diarrhea: 38%
  incidence of neutropenia: 31%
  incidence of neutropenic fever/infection: 8%

## CC[C@@]1(O)C(=O)OCc2c1cc1n(c2=O)Cc2cc3c(CN(C)C)c(O)ccc3nc2-1 [topotecan, reference compound]
[3]; person with SCLC, therapy ended after 2 months
  response to prior therapy: no response

## QIEYVAKQIVDYAIHQA [SuperAKAP-IS]
RII isoform of PKA
  selectivity for the RII isoform of PKA compared with the RI isoform: five order of magnitude higher selectivity

## IMMU-132
[4]; NSCLC, periodic assays
  Trop-2+ CTC number following treatment: substantial reduction
[4]; stage IIIB NSCLC, after 6th dose, 5.6-cm lesion at start
  primary target lesion size at first CT: 3.2 cm
[5]
  SN-38 delivered to tumor relative to maximally tolerated irinotecan therapy: ≤ 136 fold
[6]
  anti-hRS7 or anti-SN-38 antibodies: No anti-hRS7 or anti-SN-38 antibodies were detected
  antibody response to IMMU-132: no evidence of an antibody response
[7]; human, in vivo
  alopecia: 40%
  diarrhea: 47%
  diarrhea ≧G3: 9%
  fatigue: 55%
  fatigue ≧G3: 9%
  nausea: 53%
  nausea ≧G3: 0%
  neutropenia G4: 4%
  neutropenia ≧G3: 28%
  vomiting: 32%
  vomiting ≧G3: 2%
[7]; human, in vivo, 8 mg/kg
  patients provided with a dose reduction: 16%
[7]; human, in vivo, 10 mg/kg
  patients provided with a dose reduction: 15%
[7]; human, in vivo, 12 mg/kg
  patients provided with a dose reduction: 67%
[7]; human, in vivo, 18 mg/kg
  patients provided with a dose reduction: 100%
[7]; [10]
  Urinary Tract Infection, Grade 3: 1 (1%) patients (%)
  Urinary Tract Infection, Grade 4: 0 patients (%)
[3]; 13 CT-assessable PDC pts
  PDC patients with SD: 62%
[3]; 13 CT-assessable pancreatic cancer patients, 8 wks in last prior therapy
  median time to progression (TTP) in PDC patients: 12.7 wks and 11.9 wks
[3]; [11]
  patients with disease response (total): 79%
  patients with partial response (PR): 15%
[3]; 48 pts excluding PDC
  TTP for the remaining 48 pts: ≥ 12.6 wks
[3]; CRC, 12/18
  total response [PR+SD]: 67%
[3]; CRC, 18 assessable patients
  PD: 6 patients
  PR: 1 patients
[3]; EAC, 16 assessable patients
  clinical benefit ratio (CR+PR+(SD≧4 mo)]): 44%
[3]; EAC, 16 assessable patients (2 patients)
  objective response: 13%
[3]; EAC, 16 assessable patients (9 patients)
  disease control: 56%
[3]; NSCLC, 5 assessable patients
  PD: 1 patients
  PR: 1 patients
[3]; NSCLC, 19 assessable patients
  clinical benefit ratio (CR+PR+(SD≧4 mo)]): 59%
[3]; NSCLC, 19 assessable patients (6 patients)
  objective response: 32%
[3]; NSCLC, 19 assessable patients (14 patients)
  disease control: 74%
[3]; NSCLC, ⅘
  total response [PR+SD]: 80%
[3]; SCLC, 2/4
  total response [PR+SD]: 50%
[3]; SCLC, 4 assessable patients
  PD: 2 patients
  PR: 2 patients
[3]; SCLC, 20 assessable patients
  clinical benefit ratio (CR+PR+(SD≧4 mo)]): 55%
  clinical benefit ratio (CR+PR+(SD≧6 mo)]): 37%
[3]; SCLC, 20 assessable patients (6 patients)
  objective response: 30%
[3]; SCLC, 20 assessable patients (11 patients)
  disease control: 55%
[3]; TNBC, 6/8
  total response [PR+SD]: 75%
[3]; TNBC, 8 assessable patients
  PD (progressive disease): 2 patients
  PR (partial response): 2 patients
[3]; TNBC, 46 assessable patients
  clinical benefit ratio (CR+PR+(SD≧4 mo)]): 63%
  clinical benefit ratio (CR+PR+(SD≧6 mo)]): 46%
[3]; TNBC, 46 assessable patients (12 patients)
  objective response: 26%
[3]; TNBC, 46 assessable patients (34 patients)
  disease control: 74%
[3]; all patients treated, 34/48
  total response [PR+SD]: 71%
[3]; [12]
  PD: 14 patients
  PR: 7 patients
[3]; [13]
  PD: 1 patients
  PR: 1 patients
[3]; esophageal cancer, ¾
  total response [PR+SD]: 75%
[3]; person with CRC, after 10 months of treatment
  maximum reduction in target lesions: 65%
[3]; person with CRC, decrease from 781 ng/mL
  CEA after treatment: 26.5 ng/mL
[3]; person with CRC, starting dose 8 mg/kg
  reduction in target lesions at first CT assessment: 37%
[3]; person with SCLC, 12 mg/kg reduced to 6.8 mg/kg, after two months
  reduction in target lesions: 38%
[3]; person, stage IIIB NSCLC, after 6th dose, 5.6 cm lesion at start
  primary target lesion size at first CT: 3.2 cm
[8]; ELISA
  clearance of total IMMU-132 fraction (intact conjugate) vs IgG: cleared more quickly than the IgG
[8]; HPLC, unbound and total SN-38, non-glucoronidated form
  SN-38 in the serum bound to the IgG: > 95%
[8]; human, in vivo
  serum SN-38 concentration relative to SN-38 reported in patients given irinotecan: ≤ 100 fold
[8]; patients
  time for conjugate to clear from the serum: ≤ 3 days
[8]; serum, HPLC
  concentrations of SN-38G: Low concentrations
[9]
  SN-38 released daily: 50%
